The nature of series [1]: Toxicological study in mice. It counts as in vivo. The following applies: intra-peritoneal route, 30 mg/kg/day, daily administration up to 14 days.
Series [2] deals with motoneurons of the facial nucleus. The series can be described thus: axotomy of the facial nerve in newborn rats, count of motoneurons of the facial nucleus. Type of series: in vivo, rat. The following applies: axotomized newborn rats, treated orally, seven days after section.
The subject of series [3] is rat motoneurons. Put plainly: in vitro model of trophic deprivation of rat motoneurons (survival, calcein fluorescence). The note with it: 3 days in basal medium, compared with medium supplemented with neurotrophic factors, ratio greater than 0 = positive effect. It counts as cell-based. The source says: Useful reference may be made to the WO 0142784 Patent Application of the applicant on the cultivation of spinal cord motoneurons.
The spinal cord of rat E14 embryos is dissected and the ventral portion is dissociated by trituration after trypsination. The motoneurons are separated from the other spinal cells by a known method (Camu et al., 1993, Purification of spinal motoneurons from chicken and rat embryos by immunopanning. in “Immunoselection Strategies for Neural cell culture”, Neuroprotocols: A companion to Methods in Neurosciences 2, 191-199; Henderson et al., 1993. Neutrophins promote motor neuron survival and are present in embryonic limb bud. Nature 363 (6426): 266-70). The cells are centrifuged on a density gradient. Motoneurons are enriched in the fraction of large cells (the less dense cells). The cells of this fraction are incubated with an anti-p75 antibody, a surface antigen present on motoneurons. Secondary antibodies coupled with magnetic beads are added and the mixture of cells is passed through a column in a magnet (Arce et al., 1999). Only the motoneurons are retained: their purity is of the order of 90%.
The motoneurons are sown with low density in culture wells on a substrate of polyornithine-laminin in a neurobasal medium supplemented according to Raoul et al., 1999, Programmed cell death of embryonic motoneurons triggered through the Fas death receptor. J. Cell. Biol. 147(5): 1049-62. Negative controls (absence of trophic factors) and positive controls (in the presence of BDNF (Brain-Derived Neurotrophic Factor) at 1 ng/mL, GDNF (Glial-Derived Neurotrophic Factor) at 1 ng/mL, and CNTF (Ciliary Neurotrophic Factor) at 10 ng/mL, marketed by the US company PEPROTECH, Inc. and the Sigma-Aldrich company), are included in each series.
The compounds to be tested are added 60 minutes after sowing and the cultures are maintained at 37° C. under 5% CO2 for 3 days.
The motoneurons have a spontaneous tendency of dying in the absence of neurotrophic factors (Pettmann and Henderson, 1998, Neuronal cell death. Neuron 20(4): 633-47). After 3 days, survival is evaluated by measuring fluorescence after incubating the cells in the presence of calcein which becomes fluorescent in living cells.
After 3 days in culture at 37° C., under 5% CO2 and in saturating humidity, up to 50% of the initially sown motoneurons survive in the medium supplemented with neurotrophic factors, while less than 15% of the motoneurons survive in a basal medium alone.
The activity of the compounds to be tested was evaluated by their capability of preventing death of motoneurons when they are added to the neurobasal medium as compared with survival of motoneurons in a medium supplemented with neurotrophic factors.
This survival rate is expressed by a number, the ratio. If the ratio is greater than 0, the effect of the compounds is positive on the survival of the motoneurons.

With `CC(C)CCC[C@@H](C)[C@H]1CC[C@H]2[C@@H]3CC/C(=N\O)[C@](C)(CCCO)[C@H]3CC[C@]12C` [Compound 11, 3,5-seco-4-nor-cholestan-5-one oxime-3-ol], the toxicity entry in series [1] is “did not show any significant toxicity”. For the same molecule, in series [2] (dose between 3 and 30 mg/kg, as compared with non-sectioned nerve), the “increase of survival of the motoneurons of the facial nucleus” value (shortened to “increase”) is given as “up to 40%”. Besides, in series [3] (concentration 3 μM), the “Ratio (survival rate of the motoneurons)” value is recorded as 0.8. On to `CNC(=O)CCC1(C)C(=NO)CCC2C1CCC1(C)C(C(C)CCCC(C)C)CCC21` (stereo not shown) [Compound 1, 3,5-seco-4-nor-cholestan-5-one oxime-3-methyl-amide], for which the “Ratio (survival rate of the motoneurons)” value in series [3] (concentration 3 μM) was 0.4. On to `CC(C)CCCC(C)C1CCC2C3CCC(=O)C(C)(CCCO)C3CCC12C` (stereo not shown) [Compound 10, 3,5-seco-4-nor-cholestan-5-one-3-ol], for which the “Ratio (survival rate of the motoneurons)” value in series [3] (concentration 3 μM) is 0.6. As for `CC(C)CCCC(C)C1CCC2C3CCC(=NO)C(C)(CCC(=O)O)C3CCC12C` (stereo not shown) [Compound 8, 3,5-seco-4-nor-cholestan-5-one oxime-3-oic acid], the “Ratio (survival rate of the motoneurons)” value in series [3] (concentration 3 μM) is 0.4. Still for that read-out and setting: for `CC(C)CCCC(C)C1CCC2C3CCC(=NO)C(C)(CCC=NO)C3CCC12C` (stereo not shown) [Compound 12, 3,5-seco-4-nor-cholestan-5-one oxime-3-one oxime] the value was 0.7; for `CC(C)CCCC(C)C1CCC2C3CCC(=O)C(C)(CCC(C)(C)O)C3CCC12C` (stereo not shown) [Compound 2, 3,5-seco-4-nor-cholestan-5-one-3-dimethyl alcohol], 0.5. On to “3,5-seco-4-nor-cholestan-5-one oxime-3-methyl alcohol [Compound 4]”, for which the “increase” value in series [2] (dose of 30 mg/kg) was “up to 30%”. The “Ratio (survival rate of the motoneurons)” value in series [3] (concentration 3 μM) was 0.5. With `CC(C)CCCC(C)C1CCC2C3CCC(=O)C(C)(CCC(=O)O)C3CCC12C` (stereo not shown) [Compound 14, 3,5-seco-4-nor-cholestan-5-one-3-oic acid], the “Ratio (survival rate of the motoneurons)” value in series [3] (concentration 10 μM) was 0.4. For “3,5-seco-4-nor-cholestan-5-one-3-methyl ketone [Compound 13]”, the “Ratio (survival rate of the motoneurons)” value in series [3] (concentration 3 μM) is on record as 0.7.

As for `CC(C)CCCC(C)C1CCC2C3CCC(=NOCC(=O)O)C(C)(CCCO)C3CCC12C` (stereo not shown) [Compound 7, 3,5-seco-4-nor-cholestan-5-one carboxymethyl-oxime-3-ol], the “Ratio (survival rate of the motoneurons)” value in series [3] (concentration 3 μM) was 0.4.

With `CNCCCC1(C)C(=NO)CCC2C1CCC1(C)C(C(C)CCCC(C)C)CCC21` (stereo not shown) [Compound 5, 3,5-seco-4-nor-cholestan-5-one oxime-3-methyl-amine], the “Ratio (survival rate of the motoneurons)” value in series [3] (concentration 3 μM) is 0.3.

As to `CC(C)CCCC(C)C1CCC2C3CCC(O)C(C)(CCCO)C3CCC12C` (stereo not shown) [Compound 9, 3,5-seco-4-nor-cholestane-3,5-diol], the “Ratio (survival rate of the motoneurons)” value in series [3] (concentration 3 μM) is listed as 0.4.

In the case of `CON=C1CC[C@H]2[C@@H]3CC[C@H]([C@H](C)CCCC(C)C)[C@@]3(C)CC[C@@H]2[C@@]1(C)CCCO` [Compound 6, 3,5-seco-4-nor-cholestan-5-one methyloxime-3-ol], the “Ratio (survival rate of the motoneurons)” value in series [3] (concentration 3 μM) was 0.4. With `CC(C)CCCC(C)C1CCC2C3CCC(=NO)C(C)(CCC(C)(C)O)C3CCC12C` (stereo not shown) [Compound 3, 3,5-seco-4-nor-cholestan-5-one oxime-3-dimethyl alcohol], the toxicity result in series [1] is recorded as “did not show any significant toxicity”. Besides, the “increase” value in series [2] (dose of 10 mg/kg) is recorded as “up to 25%”. For the same molecule, the “Ratio (survival rate of the motoneurons)” value in series [3] (concentration 3 μM) is on record as 0.7.

(Values after patent US9045393B2, “Derivatives of 3.5-seco-4-norcholestane and use thereof” (TROPHOS, priority 2004, dated 2015).)
